Data published in article PMC9609996, “SAR Study and Molecular Mechanism Investigation of Novel Naphthoquinone-furan-2-cyanoacryloyl Hybrids with Antitumor Activity” (Pharmaceutics, 2022).

How the values were obtained:
Format in all cases: cell-based, human
[1] = tested on: A549; experiment: CCK-8 anti-proliferation assay, A549; details: mean ± SD; for inhibition at 20 µM: Homo sapiens, A549, 20 μM, read-out: Inhibition Rate (%) at 20 μM A549
Experimental: (§1) Human cervical cancer HeLa, human prostate cancer PC3, human colonic carcinoma HCT116, human lung carcinoma A549, human breast cancer MDA-MB-231, mouse melanoma B16, human ovarian cancer SKOV3, human hepatoma Hep3B, and human liver L02 cells were purchased from the Cell Bank of Shanghai Institute of Biochemistry and Cell Biology, Chinese Academy of Sciences (Shanghai, China). The HeLa, A549, B16, PC3, MDA-MB-231, HCT116, and L02 cells were cultured in Dulbecco’s modified Eagle medium (DMEM, Gibco Inc.; Gaithersburg, MD, USA). All cultures were supplied with 10% fetal bovine serum (FBS; YHSM, Beijing, China), 100 IU/mL of penicillin, and 100 μg/mL of streptomycin, and cells were incubated at 37 °C in an atmosphere of 5% CO2.
(§2) A CCK-8 kit (MCE, USA) was used to perform a CCK-8 assay. Cells were plated and grown in the 96-well plates for the indicated period (48 h) in the incubator, followed by an incubation with the CCK-8 solutions for 1–4 h. Subsequently, the absorbance (450 nm) was measured by a microplate reader. The median inhibitory concentration (IC50) was determined from the dose–response curve. Experiments were performed in a triplicate.

[2] = tested on: HeLa; experiment: CCK-8 anti-proliferation assay, HeLa; details: 20 μM, mean ± SD; for inhibition at 20 µM: Homo sapiens, read-out: Inhibition Rate (%) at 20 μM HeLa
Experimental: as §1, §2

[3] = tested on: PC3; experiment: CCK-8 anti-proliferation assay, PC3; details: mean ± SD; for inhibition at 20 µM: Homo sapiens, PC-3, 20 μM, read-out: Inhibition Rate (%) at 20 μM PC3
Experimental: as §1, §2

[4] = tested on: HCT116; experiment: CCK-8 anti-proliferation assay, HCT116; details: mean ± SD; for inhibition at 20 µM: Homo sapiens, HCT-116, 20 μM, read-out: Inhibition Rate (%) at 20 μM HCT116
Experimental: as §1, §2

## N#C/C(=C\c1ccc(C2=CC(=O)c3ccccc3C2=O)o1)C(=O)N1CCc2ccccc2C1 [Compound 5b, (E)-3-(5-(1,4-dioxo-1,4-dihydronaphthalen-2-yl)furan-2-yl)-2-(1,2,3,4-tetrahydroisoquinoline-2-carbonyl)acrylonitrile]
[1]
  inhibition at 20 µM: 18.4 ± 0.82%
[2]
  inhibition at 20 µM: 20.5 ± 0.28%
[3]
  inhibition at 20 µM: 17.8 ± 0.33%
[4]
  inhibition at 20 µM: 8.83 ± 0.1%

## COc1cc(-c2ccc(C(=O)Nc3cccc(N4CCN(C)CC4)c3)o2)c(OC)c2ccccc12 [Compound 8e, 5-(1,4-Dimethoxynaphthalen-2-yl)-N-(3-(4-methylpiperazin-1-yl)phenyl)furan-2-carboxamide]
[1]
  inhibition at 20 µM: 14.5 ± 0.25%
[2]
  inhibition at 20 µM: 40.58 ± 0.36%
[3]
  inhibition at 20 µM: 11.5 ± 0.17%
[4]
  inhibition at 20 µM: 7.7 ± 0.27%

## COC(=O)c1ccc(-c2cc(OC)c3ccccc3c2OC)o1 [Compound 6, Methyl 5-(1,4-dimethoxynaphthalen-2-yl)furan-2-carboxylate]
[1]
  inhibition at 20 µM: 21.3 ± 0.45%
[2]
  inhibition at 20 µM: 27 ± 0.32%
[3]
  inhibition at 20 µM: 21.6 ± 0.83%
[4]
  inhibition at 20 µM: 16.78 ± 0.07%

## COc1cc(-c2ccc(C(=O)NC3CCC(F)(F)CC3)o2)c(OC)c2ccccc12 [Compound 8f, N-(4,4-difluorocyclohexyl)-5-(1,4-dimethoxynaphthalen-2-yl)furan-2-carboxamide]
[1]
  inhibition at 20 µM: 28.3 ± 0.33%
[2]
  inhibition at 20 µM: 30.1 ± 0.39%
[3]
  inhibition at 20 µM: 17.72 ± 0.12%
[4]
  inhibition at 20 µM: 27.19 ± 0.15%

## N#C/C(=C\c1ccc(C2=CC(=O)c3ccccc3C2=O)o1)C(=O)NC1CCN(Cc2ccccc2)CC1 [Compound 5a, (E)-N-(1-benzylpiperidin-4-yl)-2-cyano-3-(5-(1,4-dioxo-1,4-dihydronaphthalen-2-yl)furan-2-yl)acrylamide]
[1]
  inhibition at 20 µM: 13.3 ± 0.17%
[2]
  inhibition at 20 µM: 10.4 ± 0.41%
[3]
  inhibition at 20 µM: 3.7 ± 0.19%
[4]
  inhibition at 20 µM: 8.36 ± 0.26%

## COc1cc(-c2ccc(/C=C(\C#N)C(=O)N3CCc4ccccc4C3)o2)c(OC)c2ccccc12 [Compound 4b, (E)-3-(5-(1,4-dimethoxynaphthalen-2-yl)furan-2-yl)-2-(1,2,3,4-tetrahydroisoquinoline-2-carbonyl)acrylonitrile]
[1]
  inhibition at 20 µM: 24.2 ± 0.31%
[2]
  inhibition at 20 µM: 11.71 ± 0.04%
[3]
  inhibition at 20 µM: 3.88 ± 0.13%
[4]
  inhibition at 20 µM: 19.6 ± 0.65%

## CC1(C)CC(NC(=O)/C(C#N)=C/c2ccc(C3=CC(=O)c4ccccc4C3=O)o2)CC(C)(C)N1 [Compound 5e, (E)-2-cyano-3-(5-(1,4-dioxo-1,4-dihydronaphthalen-2-yl)furan-2-yl)-N-(2,2,6,6-tetramethylpiperidin-4-yl)acrylamide]
[1]
  inhibition at 20 µM: 19.8 ± 0.32%
[2]
  inhibition at 20 µM: 29.73 ± 0.07%
[3]
  inhibition at 20 µM: 19.3 ± 0.28%
[4]
  inhibition at 20 µM: 5.97 ± 95%

## COc1cc(-c2ccc(C(=O)NCc3cc(C(F)(F)F)ccc3F)o2)c(OC)c2ccccc12 [Compound 8d, 5-(1,4-Dimethoxynaphthalen-2-yl)-N-(2-fluoro-5-(trifluoromethyl)benzyl)furan-2-carboxamide]
[1]
  inhibition at 20 µM: 19.35 ± 0.07%
[2]
  inhibition at 20 µM: 22.7 ± 0.27%
[3]
  inhibition at 20 µM: 22.45 ± 0.05%
[4]
  inhibition at 20 µM: 14.5 ± 0.24%

## COc1cc(-c2ccc(C(=O)Nc3ccc(CN4CCN(C)CC4)c(C(F)(F)F)c3)o2)c(OC)c2ccccc12 [Compound 8h, 5-(1,4-Dimethoxynaphthalen-2-yl)-N-(4-((4-methylpiperazin-1-yl)methyl)-3-(trifluoromethyl)phenyl)furan-2-carboxamide]
[1]
  inhibition at 20 µM: 21.6 ± 0.39%
[2]
  inhibition at 20 µM: 28.47 ± 0.1%
[3]
  inhibition at 20 µM: 16.5 ± 0.97%
[4]
  inhibition at 20 µM: 19.6 ± 0.34%

## COc1cc(-c2ccc(/C=C(\C#N)C(=O)NCCN3CCCC3)o2)c(OC)c2ccccc12 [Compound 4i, (E)-2-cyano-3-(5-(1,4-dimethoxynaphthalen-2-yl)furan-2-yl)-N-(2-(pyrrolidin-1-yl)ethyl)acrylamide]
[1]
  inhibition at 20 µM: 13.9 ± 0.87%
[2]
  inhibition at 20 µM: 35 ± 0.41%
[3]
  inhibition at 20 µM: 12.29 ± 0.12%
[4]
  inhibition at 20 µM: 29.05 ± 0.08%

## N#C/C(=C\c1ccc(C2=CC(=O)c3ccccc3C2=O)o1)C(=O)N1CC2CCCCC2C1 (stereo not drawn) [Compound 5f, (E)-3-(5-(1,4-dioxo-1,4-dihydronaphthalen-2-yl)furan-2-yl)-2-(octahydro-1H-isoindole-2-carbonyl)acrylonitrile]
[1]
  inhibition at 20 µM: 13.9 ± 0.14%
[2]
  inhibition at 20 µM: 1.9 ± 0.72%
[3]
  inhibition at 20 µM: 11.13 ± 0.03%
[4]
  inhibition at 20 µM: 3.41 ± 0.26%

## COc1cc(-c2ccc(/C=C(\C#N)C(=O)N3CC4CCCCC4C3)o2)c(OC)c2ccccc12 (stereo not drawn) [Compound 4f, (E)-3-(5-(1,4-dimethoxynaphthalen-2-yl)furan-2-yl)-2-(octahydro-1H-isoindole-2-carbonyl)acrylonitrile]
[3]
  inhibition at 20 µM: 11.8 ± 0.79%
[4]
  inhibition at 20 µM: 43.7 ± 0.84%

## COc1cc(-c2ccc(/C=C(\C#N)C(=O)NCCc3cccs3)o2)c(OC)c2ccccc12 [Compound 4d, (E)-2-cyano-3-(5-(1,4-dimethoxynaphthalen-2-yl)furan-2-yl)-N-(2-(thiophen-2-yl)ethyl)acrylamide]
[1]
  inhibition at 20 µM: 21.58 ± 0.02%
[2]
  inhibition at 20 µM: 11.6 ± 0.79%
[3]
  inhibition at 20 µM: 7.17 ± 0.31%
[4]
  inhibition at 20 µM: 10.8 ± 0.49%

## O=C(NC1CCN(Cc2ccccc2)CC1)c1ccc(C2=CC(=O)c3ccccc3C2=O)o1 [Compound 9a, N-(1-benzylpiperidin-4-yl)-5-(1,4-dioxo-1,4-dihydronaphthalen-2-yl)furan-2-carboxamide]
[1]
  inhibition at 20 µM: 20.7 ± 0.49%
[2]
  inhibition at 20 µM: 42.87 ± 0.22%
[3]
  inhibition at 20 µM: 2.39 ± 0.09%
[4]
  inhibition at 20 µM: 33.71 ± 0.13%

## COc1cc(-c2ccc(C(=O)NC(C)c3ccccc3)o2)c(OC)c2ccccc12 (stereo not drawn) [Compound 8b, 5-(1,4-Dimethoxynaphthalen-2-yl)-N-(1-phenylethyl)furan-2-carboxamide]
[1]
  inhibition at 20 µM: 7.87 ± 0.11%
[2]
  inhibition at 20 µM: 19.33 ± 0.18%
[3]
  inhibition at 20 µM: 24.99 ± 0.19%
[4]
  inhibition at 20 µM: 2.17 ± 0.02%

## COc1cc(-c2ccc(/C=C(\C#N)C(=O)NC3CCN(Cc4ccccc4)CC3)o2)c(OC)c2ccccc12 [Compound 4a, (E)-N-(1-benzylpiperidin-4-yl)-2-cyano-3-(5-(1,4-dimethoxynaphthalen-2-yl)furan-2-yl)acrylamide]
[1]
  inhibition at 20 µM: 16.3 ± 0.22%
[2]
  inhibition at 20 µM: 13.6 ± 0.15%
[3]
  inhibition at 20 µM: 15.5 ± 0.17%
[4]
  inhibition at 20 µM: 5.69 ± 0.23%

## COc1cc(-c2ccc(C(=O)NC3CCN(Cc4ccccc4)CC3)o2)c(OC)c2ccccc12 [Compound 8a, N-(1-benzylpiperidin-4-yl)-5-(1,4-dimethoxynaphthalen-2-yl)furan-2-carboxamide]
[1]
  inhibition at 20 µM: 24.1 ± 0.35%
[2]
  inhibition at 20 µM: 20.86 ± 0.18%
[3]
  inhibition at 20 µM: 15.5 ± 0.29%
[4]
  inhibition at 20 µM: 12.4 ± 0.15%

## COc1cc(-c2ccc(/C=C(\C#N)C(=O)NCc3cccc(C(F)(F)F)c3)o2)c(OC)c2ccccc12 [Compound 4g, (E)-2-cyano-3-(5-(1,4-dimethoxynaphthalen-2-yl)furan-2-yl)-N-(3-(trifluoromethyl)benzyl)acrylamide]
[1]
  inhibition at 20 µM: 4.87 ± 0.3%
[2]
  inhibition at 20 µM: 16.1 ± 0.17%
[3]
  inhibition at 20 µM: 15.38 ± 0.01%
[4]
  inhibition at 20 µM: 7.69 ± 0.02%

## N#C/C(=C\c1ccc(C2=CC(=O)c3ccccc3C2=O)o1)C(=O)NCCc1cccs1 [Compound 5d, (E)-2-cyano-3-(5-(1,4-dioxo-1,4-dihydronaphthalen-2-yl)furan-2-yl)-N-(2-(thiophen-2-yl)ethyl)acrylamide]
[1]
  inhibition at 20 µM: 17.2 ± 0.35%
[2]
  inhibition at 20 µM: 5.61 ± 0.24%
[3]
  inhibition at 20 µM: 15.5 ± 0.2%
[4]
  inhibition at 20 µM: 26.8 ± 0.94%

## COc1cc(-c2ccc(C(=O)NCCC(=O)N3CCOCC3)o2)c(OC)c2ccccc12 [Compound 8c, 5-(1,4-Dimethoxynaphthalen-2-yl)-N-(3-morpholino-3-oxopropyl)furan-2-carboxamide]
[1]
  inhibition at 20 µM: 14.1 ± 0.32%
[3]
  inhibition at 20 µM: 4.65 ± 0.56%
[4]
  inhibition at 20 µM: 4.73 ± 0.47%

## (E)-2-cyano-3-(5-(1,4-dioxo-1,4-dihydronaphthalen-2-yl)furan-2-yl)-N-(3-(trifluoromethyl)phenyl)acrylamide [Compound 5g]
[1]; 20 μM
  Inhibition Rate (%) at 20 μM A549: 32.35 ± 0.95%
[2]
  Inhibition Rate (%) at 20 μM HeLa: 27.98 ± 0.36%
[3]; 20 μM
  Inhibition Rate (%) at 20 μM PC3: 11.20 ± 0.02%
[4]; 20 μM
  Inhibition Rate (%) at 20 μM HCT116: 28.25 ± 0.04%

## COC(=O)c1ccc(C2=CC(=O)c3ccccc3C2=O)o1 [Compound 6a, Methyl 5-(1,4-dioxo-1,4-dihydronaphthalen-2-yl)furan-2-carboxylate]
[1]
  inhibition at 20 µM: 2.15 ± 0.37%
[2]
  inhibition at 20 µM: 26.1 ± 0.66%
[3]
  inhibition at 20 µM: 6.93 ± 0.79%
[4]
  inhibition at 20 µM: 17.67 ± 0.06%

## COc1cc(-c2ccc(C(=O)NCCCn3ccnc3)o2)c(OC)c2ccccc12 [Compound 8g, N-(3-(1H-imidazol-1-yl)propyl)-5-(1,4-dimethoxynaphthalen-2-yl)furan-2-carboxamide]
[1]
  inhibition at 20 µM: 26.89 ± 0.16%
[2]
  inhibition at 20 µM: 18.28 ± 0.03%
[3]
  inhibition at 20 µM: 7.59 ± 0.72%
[4]
  inhibition at 20 µM: 27.46 ± 0.16%

## O=C(NCCC(=O)N1CCOCC1)c1ccc(C2=CC(=O)c3ccccc3C2=O)o1 [Compound 9c, 5-(1,4-Dioxo-1,4-dihydronaphthalen-2-yl)-N-(3-morpholino-3-oxopropyl)furan-2-carboxamide]
[1]
  inhibition at 20 µM: 15.1 ± 0.31%
[2]
  inhibition at 20 µM: 5.91 ± 0.29%
[3]
  inhibition at 20 µM: 1.45 ± 0.86%
[4]
  inhibition at 20 µM: 37.21 ± 0.08%
